Data: US20260146029A1, “METHODS FOR THE TREATMENT OR PROPHYLAXIS OF ENDOMETRIOSIS” (Gesynta Pharma AB, priority 2022, published 2026)
Several values for one entry are separate records, joined by “and”; a condition that tells them apart may be missing. Identical values can stand only once.

Experiments:
[1] = test system: Marmoset monkeys (Callithrix jacchus), established endometriosis; assay: Feeding tree behaviour test; type: in vivo; details: during treatment, all animals
Excerpt: (§1) Different behavioural test systems were used to study pain and discomfort, social comfort, memory, learning and activity were set up. All primates used in the study were familiar with the test-systems (for a period of more than 6 months) to confirm that the obtained results are related to the medication and not a learning effect over time.
(§2) Two test systems were used in the study as described in Arnold et al., J Med Primatol., 40, 317-326 (2011). • 1. Feeding tree • 2. Wisconsin General Testing apparatus (WGTA) Before and during the study documentation of social interaction, such as grooming, were performed.
The feeding tree was to test movement activity associated with pain, discomfort and/or distress. The feeding tree offers food at different positions to reach, which requires different levels of movement. If an animal has discomfort, distress or abdominal pain it will not search for food at upper areas or at all. Moreover, systematic search is reduced if memory is impaired. In the setting, each primate had to empty every reward-containing hideouts within 5 minutes to be fully successful. The response of the 8 animals was graded before, during and after treatment on a scale of 0-4 indicting the number of hideouts emptied within 5 minutes.

[2] = test system: Marmoset monkeys (Callithrix jacchus), established endometriosis; assay: Colour Doppler ultrasonic scanning of blood flow (bladder area, reproductive tract area); type: in vivo; set-up: key to Individual data on blood flow bladder / Individual data on blood flow repro tract: 0=blood flow not visible; 1=weak blood flow; 2=medium blood flow; 3=massive blood flow; details: for Individual data on blood flow bladder / Individual data on blood flow repro tract: individual animals 1-8 (one line each), 6.67 mg/kg; for Individual data on blood flow bladder / Individual data on blood flow repro tract / Blood flow bladder, median score / Blood flow repro tract, median score: oral 6.67 mg/kg twice/day; for Blood flow bladder, median score / Blood flow repro tract, median score: median of 8 animals, scale 0-3, baseline median 2
Protocol: (§3) The substance as depicted below (prepared according to the procedure in WO 2012/022793 A1) was orally administered (as the hydrogen sulphate salt thereof) for 6 weeks to common marmoset monkeys at a dose of 6.67 mg/kg twice/day (calculated based on the free base, with the actual weight of compound administered calculated as required for the hydrogen sulphate salt).
(§4) The age of the marmosets ranged between 3 and 16 years. All animals were female and had established endometriosis over years. Induction of endometriosis was performed as described in Einspanier et al., Mol Human Reprod., 12(5), 291-9 (2006).
Colour Doppler ultrasonic scanning was done before and 3 times during the treatment period to follow blood flow. Colour doppler scanning was carried out as described by Einspanier (ibid).
Colour Doppler ultrasonic scanning was performed to measure blood flow in the reproductive tract (uterus and ovaries) area as well as in the bladder area.
Individual blood flow measurements are provided in Table 1, 0=blood flow not visible, 1=weak blood flow, 2=medium blood flow and 3=massive blood flow.

[3] = test system: Marmoset monkeys (Callithrix jacchus), established endometriosis; assay: Wisconsin General Testing Apparatus (WGTA) memory and learning test; type: in vivo; details: during the treatment, all females
Excerpt: as §1, §2
Memory and learning of the primates were tested. All animals are train-rewarded for the WGTA. The animal, which is sitting in the transport box, is either trained for special figures or places, which hide the reward. The observer can watch the behaviour of the animal, but the animal cannot see the observer.
The 8 animals were tested in the WGTA for memory by remembering either the figure or location of the hidden reward. Wellbeing of a primate is associated with willingness to search for food, which is also included by this test system. The animals have to find the reward underneath the three different figures three times within 5 minutes. Each animal is either trained for the location of the figure or figure itself.

[4] = test system: Marmoset monkeys (Callithrix jacchus), established endometriosis; assay: Reproductive cycle monitoring by serum progesterone; type: in vivo; details: after treatment
Protocol: For analysis of serum progesterone concentration to monitor the reproductive cycle, blood was collected weekly before and during treatment. Serum was separated from blood samples by centrifugation (2600 rpm 10 min, Eppendorf Centrifuge 5810 R) within two hours of sampling and stored at minus 80° C.

[5] = test system: Marmoset monkeys (Callithrix jacchus), established endometriosis; assay: Social interaction (grooming) observation; type: in vivo; details: during treatment compared to before treatment, all animals
Protocol: as §2
The documentation of grooming was carried out by daytime observation. These behaviour observations give information about wellbeing, while grooming is a marker for positive social activity. The social grooming was documented 1 h after breakfast and 1 h after lunch by observing the couples each time for 10 minutes. For each animal, the number of grooming interactions in the observed period was recorded.

[6] = test system: Marmoset monkeys (Callithrix jacchus), established endometriosis; assay: Laparotomy assessment of endometriotic lesions (number and size of foci); type: in vivo
Protocol: as §3, §4
Laparotomy was carried out twice, seven weeks before treatment start of treatment and immediately after end of treatment. There was a duration of at least 3 months between each laparotomy.
After pre-medication with Göttinger Mischung M II (Ketamin, Xylazin and Atropin mixture), an inhalation anaesthesia with Isofluran was carried out which last in average 60 minutes. The abdomen was opened beside line alba for 1 cm range to visualise the reproductive tract and bladder. The endometriotic lesions were characterized and documented in pictures. During the second laparoptomy samples from the lesions were collected. Postoperative care of the animals was carried out as required by local law. The collected tissue samples were fixed in paraformaldehyde and embedded in paraffin or stored at −80° C. Before abdominal suture, all organs were replaced in their place. All females were separated from their males for some hours due to medical reasons and obtained antibiotics for some days.
Laparotomy analysis was performed to assess endometriotic lesions.

[7] = test system: Marmoset monkeys (Callithrix jacchus), established endometriosis; assay: General health status: clinical signs and blood chemistry; type: in vivo; details: oral 6.67 mg/kg twice/day for 6 weeks
Protocol: (§5) All animals were weighed weekly before and during the treatment. Health body checks including clinical signs as well as blood chemistry analysis were carried out in a regular manner by the responsible vet.

[8] = Body weight (weighed weekly); type: in vivo, Marmoset monkeys (Callithrix jacchus); details: during the treatment period; oral 6.67 mg/kg twice/day for 6 weeks
Protocol: as §5

[9] = Week 7 (EoT), individual animals 1-8 (one line each), oral 6.67 mg/kg twice/day for 6 weeks
[10] = Week 7 (EoT), individual animals 1-8 (one line each), oral 6.67 mg/kg twice/day for 6 weeks, 6.67 mg/kg

Structure (SMILES): Cn1c(Nc2c(Cl)ccc(CNC(=O)C(C)(C)C)c2Cl)nc2cc(C(=O)N[C@H]3CC[C@H](C(F)(F)F)CC3)c(OCC(F)F)cc21 [compound of formula I, 2-{2,6-dichloro-3-[(2,2-dimethyl-propionylamino)-methyl]-phenylamino}-6-(2,2-difluoroethoxy)-1-methyl-1H-benzoimidazole-5-carboxylic acid (trans-4-trifluoromethylcyclohexyl)-amide]
- Success rate in the feeding tree (hideouts emptied within 5 minutes, scale 0-4) [1]: improved
- Individual data on blood flow bladder ([2]; Week 1): 3 (3×) and 2 (3×) and 1 (2×)
- Individual data on blood flow repro tract ([2]; Week 1): 3 and 2 (5×) and 1 (2×)
- Blood flow bladder, median score ([2]; Week 1): 2
- Blood flow repro tract, median score ([2]; Week 1): 2
- Individual data on blood flow bladder ([2]; Week 4): 3 and 2 (3×) and 1 (4×)
- Individual data on blood flow repro tract ([2]; Week 4): 2 (3×) and 1 (4×) and 0
- Blood flow bladder, median score ([2]; Week 4): 1.5
- Blood flow repro tract, median score ([2]; Week 4): 1
- Individual data on blood flow bladder ([2]; Week 6): 2 and 1 (7×)
- Individual data on blood flow repro tract ([2]; Week 6): 2 (3×) and 1 (3×) and 0 (2×)
- Blood flow in reproductive tract (uterus and ovaries) area and bladder area, result in words ([2]; all animals, both areas, oral 6.67 mg/kg twice/day for 6 weeks): Decreased blood flow
- WGTA success rate of correct figure or location within time [3]: increased success rate
- Animals showing irregular cycles ([4]; of 8 animals, before therapy 5 irregular cycles and 1 no activity): 2 animals
- Animals showing ovarian cycle activity ([4]; before therapy 2 of 8 animals showed ovarian cycle activity): 6 out of 8
- Grooming interactions [5]: increased
- Number of endometriotic lesions repro tract, lesion size 2-4 mm [6, 9]: 0
- Number of endometriotic lesions repro tract, lesion size >4 mm [6, 9]: 0
- Number of endometriotic lesions on the bladder, Total [6, 10]: 4 (2×) and 14 and 24 and 7 and 12 and 5 and 10
- Number of endometriotic lesions on the bladder, lesion size 2-4 mm [6, 10]: 0 (6×) and 3 and 5
- Number of endometriotic lesions on the bladder, lesion size <2 mm [6, 10]: 0 (4×) and 5 and 12 and 4 and 7
- Number of endometriotic lesions on the bladder, lesion size >4 mm [6, 10]: 0 (6×) and 3 and 2
- Number of endometriotic lesions on the bladder, lesion size s.p. (visible but not measurable) [6, 10]: 4 and 2 and 5 (2×) and 7 and 0 and 12 and 3
- Number of endometriotic lesions repro tract, Total [6, 10]: 0 (2×) and 3 (2×) and 8 and 2 (2×) and 4
- Number of endometriotic lesions repro tract, lesion size <2 mm [6, 10]: 0 (5×) and 2 (2×) and 4
- Number of endometriotic lesions repro tract, lesion size s.p. (visible but not measurable) [6, 10]: 0 (2×) and 1 and 4 and 3 and 2 (3×)
- Endometric foci at laparotomy, result in words ([6]; all animals, all sizes of foci affected, after 6 weeks of treatment): Pronounced reduction
- Blood laboratory parameters ([7]; before and after treatment): in the physiological range
- Clinical signs, general health behaviour of the study animals ([7]; during the study period, 8 female marmosets): no changes
- Change in body weight [8]: no significant change
